The values that follow come from patent publication EP2987533B1, “7-substituted piperazin-1-yl fluoroquinolone compounds, their use in the treatment of cancer, pharmaceutical compositions and a method for preparation” (priority 2014, dated 2016).

Structures are written as SMILES.

What all share (format): cell-based
One assay relates to NCI-H460. As to the kind of experiment: NCI five-dose SRB growth assay. As to conditions: Homo sapiens; NCI-H460 (Non-Small Cell Lung Cancer), 48 h.
The next assay relates to LOX IMVI. As to the kind of experiment: NCI five-dose SRB growth assay. As to conditions: Homo sapiens; LOX IMVI (Melanoma), 48 h. On the technique in general: Sulforhodamine B stains cellular protein and so reports cell mass.
In a further assay the test system is M14. Put plainly: NCI five-dose SRB growth assay. The conditions noted are these: Homo sapiens; M14 (Melanoma), 48 h.
In another assay the test system is HCC-2998. Put plainly: NCI five-dose SRB growth assay. As to conditions: Homo sapiens; HCC-2998 (Colon Cancer), 48 h.
A further assay relates to HCT-116. As to the kind of experiment: NCI five-dose SRB growth assay. The conditions noted are these: Homo sapiens; HCT-116 (Colon Cancer), 48 h.
The next assay has as its system HT29. Put plainly: NCI five-dose SRB growth assay. As to conditions: Homo sapiens, HT-29; HT29 (Colon Cancer), 48 h.
The next assay deals with HS 578T. Put plainly: NCI one-dose SRB growth assay. The conditions noted are these: Homo sapiens; HS 578T (Breast Cancer), 10^-5 M, 48 h; read-out: % Growth Inhibition (GI %).

For orientation: GI50 means the concentration at which growth is held to half of that of the control. A lower GI50 goes with more potent growth inhibition. Usually inhibition stands for the drop in the measured response relative to a control, in per cent. Consider `CCn1cc(C(=O)O)c(=O)c2cc(F)c(N3CCN(S(=O)(=O)c4ccc(Cl)cc4)CC3)cc21` [Compound 1a], for which the GI50 worked out at 3.16 µM in the assay with NCI-H460; 2.4 µM in the assay with LOX IMVI; 2.85 µM in the assay on M14; 4.1 µM in the assay on HCC-2998; 3.18 µM with HCT-116; 2.64 µM in the assay with HT29. Besides, in the assay on HS 578T, the inhibition at 10 µM came to 81.1%.

For `O=c1[nH]cc(F)c(=O)[nH]1` [Compound 5-FU, 5-fluorouracil, reference compound], the inhibition at 10 µM with HS 578T is over 100%.

Turning to `O=C(O)c1cn(C2CC2)c2cc(N3CCN(S(=O)(=O)c4ccc(Cl)c(Cl)c4)CC3)c(F)cc2c1=O` [Compound 3b], the GI50 in the assay on NCI-H460 is 3.66 µM; in the assay on LOX IMVI it was 1.44 µM; in the assay with M14, 4.06 µM; with HCC-2998 it was 4.47 µM; in the assay on HCT-116 it was 3.86 µM; in the assay on HT29 it was 3.77 µM.

For the compound `CCn1cc(C(=O)O)c(=O)c2cc(F)c(N3CCN(S(=O)(=O)c4cccc5ccccc45)CC3)cc21` [Compound 7a], the GI50 with NCI-H460 amounted to 3.43 µM; with LOX IMVI, 1.63 µM; in the assay on M14, 4.37 µM; with HCC-2998 it was 4.26 µM; in the assay with HCT-116, 3.88 µM; in the assay on HT29, 3.95 µM.

Take `Cc1cc(C)c(S(=O)(=O)N2CCN(c3cc4c(cc3F)c(=O)c(C(=O)O)cn4C3CC3)CC2)c(C)c1` [Compound 6b]: the GI50 with NCI-H460 stood at 3.04 µM; with LOX IMVI it was 1.42 µM; in the assay on M14 it was 4.69 µM; in the assay with HCC-2998, 5.37 µM; in the assay on HCT-116, 2.98 µM; with HT29, 3.15 µM.

`CCn1cc(C(=O)O)c(=O)c2cc(F)c(N3CCN(S(=O)(=O)c4ccc(Cl)cc4Cl)CC3)cc21` [Compound 2a]: the GI50 with NCI-H460 was 3.13 µM; in the assay on LOX IMVI, 1.48 µM; in the assay with M14 it was 3.24 µM; in the assay on HCC-2998 it was 2.29 µM; in the assay on HCT-116, 3.56 µM; in the assay on HT29, 3.63 µM.
